Measured values published in patent USRE47141E1, “Methods of treating fibrosis, cancer and vascular injuries” (EWHA University—Industry Collaboration Foundation, priority 2010, dated 2018).

Target: ALK5 (Homo sapiens (Human), UniProt P36897)
Assay: Cell-free assay for inhibition of ALK5 kinase phosphorylation
Assay type: biochemical
Settings: read-out: IC50 on ALK5 kinase phosphorylation
Experimental: ALK5 protein was expressed in Sf9 insect cells as human recombinant GST-fusion protein using the baculovirus expression system. Expressed protein was purified by affinity chromatography using GSH-agarose (Sigma-Aldrich). Kinase assay was performed in 96-well FlashPlates™ from Perkin Elmer (Boston, Mass., USA) in a 50 μL reaction volume. The reaction cocktail was pipetted in four steps in the following order: 20 μL of assay buffer (standard buffer), 5 μL of ATP solution in H2O, 5 μL of each test compounds of formula (I) in 10% DMSO, 10 μL of GSK3 (14-27) (200 ng)/10 μL of ALK5 solution (1 ng) (premixed). The reaction cocktail contained 60 mM HEPES-NaOH, pH 7.5, 3 mM MgCl2, 3 mM MnCl2, 3 Na3VO4, 1.2 mM DTT, 50 μg/mL PEG20000, 1 μM [γ-^33P]-ATP (approximately 2.5×10^5 cpm per well), 200 ng/10 μL GSK3 (14-27), and 1 ng/10 μL ALK5. The reaction cocktail was incubated at 30° C. for 60 min. The reaction was stopped with 50 μL of 2% (v/v) H3PO4, and plates were aspirated and washed two times with 200 μL 0.9% (w/v) NaCl. Assay was performed with a BeckmanCoulter Biomek 2000 robotic system. Incorporation of ^33Pi (counting of “cpm”) was determined with a microplate scintillation counter (Microbeta, Wallac).

ALK5, sequence (P36897 34-503): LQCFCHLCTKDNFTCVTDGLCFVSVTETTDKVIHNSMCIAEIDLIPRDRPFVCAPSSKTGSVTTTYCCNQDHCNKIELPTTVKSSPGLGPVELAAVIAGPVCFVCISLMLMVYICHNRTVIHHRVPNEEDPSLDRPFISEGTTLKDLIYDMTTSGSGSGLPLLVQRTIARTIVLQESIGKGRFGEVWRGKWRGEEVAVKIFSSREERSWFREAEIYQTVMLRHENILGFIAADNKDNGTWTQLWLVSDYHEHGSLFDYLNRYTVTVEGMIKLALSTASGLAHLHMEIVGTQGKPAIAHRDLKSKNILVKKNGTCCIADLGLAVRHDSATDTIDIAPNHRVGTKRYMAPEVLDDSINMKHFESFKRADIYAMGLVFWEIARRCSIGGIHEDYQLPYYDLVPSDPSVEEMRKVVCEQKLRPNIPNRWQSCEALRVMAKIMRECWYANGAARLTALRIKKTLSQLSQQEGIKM

Compound | IC50 [nM]
Cc1cccc(-c2[nH]c(CNc3ccc(NS(C)(=O)=O)cc3)nc2-c2ccc3ncnn3c2)n1 [Example 79, N-(4-((4-([1,2,4]triazolo[1,5-c]pyridin-6-yl)-5-(6-methylpyridin-2-yl)-1H-imidazol-2-yl)methylamino)phenyl)methanesulfonamide] | 46.6
CCc1cccc(-c2[nH]c(CNc3ccccc3F)nc2-c2ccc3ncnn3c2)n1 [Example 139, N-((4-([1,2,4]triazolo[1,5-a]pyridin-6-yl)-5-(6-ethylpyridin-2-yl)-1H-imidazol-2-yl)methyl)-2-fluoroaniline] | 23.2
Cc1cccc(-c2[nH]c(CNc3cccc(NS(C)(=O)=O)c3)nc2-c2ccc3ncnn3c2)n1 [Example 78, N-(3-((4-([1,2,4]triazolo[1,5-a]pyridin-6-yl)-5-(6-methylpyridin-2-yl)-1H-imidazol-2-yl)methylamino)phenyl)methanesulfonamide] | 15.1
Cc1cccc(-c2[nH]c(COc3cccc(C(N)=O)c3)nc2-c2ccc3ncnn3c2)n1 [Example 151, 3-((4-([1,2,4]triazolo[1,5-a]pyridin-6-yl)-5-(6-methylpyridin-2-yl)-1H-imidazol-2-yl)methoxy)benzamide] | 22.5
C=Cc1cccc(NCc2nc(-c3ccc4ncnn4c3)c(-c3cccc(C)n3)[nH]2)c1 [Example 37, N-((4-([1,2,4]triazolo[1,5-a]pyridin-6-yl)-5-(6-methylpyridin-2-yl)-1H-imidazol-2-yl)methyl)-3-vinylaniline] | 11.9
Cc1cccc(-c2[nH]c(CNc3cccc(OC(F)(F)F)c3)nc2-c2ccc3ncnn3c2)n1 [Example 52, N-((4-([1,2,4]triazolo[1,5-a]pyridin-6-yl)-5-(6-methylpyridin-2-yl)-1H-imidazol-2-yl)methyl)-3-(trifluoromethoxy)aniline] | 23.4
CC(=O)Nc1cccc(NCc2nc(-c3ccc4ncnn4c3)c(-c3cccc(C)n3)[nH]2)c1 [Example 75, N-(3-((4-([1,2,4]triazolo[1,5-a]pyridin-6-yl)-5-(6-methylpyridin-2-yl)-1H-imidazol-2-yl)methylamino)phenyl)acetamide] | 15.4
